Columns and labels:
Format in all cases: in vivo
[1] = tested on: rice plants (transgenic Lines 26 and 29; Nt control); assay: Greenhouse herbicide tests on rice
Description: We evaluated the response of transgenic rice to PURSUIT® imazethapyr application in the greenhouse. In this experiment, we included 2 transgenic lines and their untransformed counterpart (Nt). The transgenic lines, designated as Line 26 and 29, were T3 progeny derived from previously identified homozygous resistant transgenic plants containing the maize XI12 ahas2 gene driven by its own promoter. All seeds were pre-germinated in water for 2-3 days then grown in a planting mixture consisting of 1:1 soil and MetroMix 360 (The Scotts Company, Marysville, Ohio 43040) in 6-inch pots (2 seeds per pot) in the greenhouse and sprayed with PURSUIT® imazethapyr at 63, 125, or 250 g ai/ha. For post-emergence application, the plants were sprayed 15 days after seeding, at which time most plants had 3 leaves. For pre-emergence treatment, PURSUIT® imazethapyr was sprayed one day after seeding. Each treatment contained 20 plants and, and 3 replicates per treatment. One set of materials was not sprayed and used as control. The plants were grown in the greenhouse and harvested at maturity. The amount of PURSUIT® imazethapyr applied in this study (63, 125, or 250 g ai/ha) was close to 1, 2 or 4× field application rate for imi-resistant corn (refer to Table 3) since PURSUIT® imazethapyr is not currently labeled for use in rice fields. A custom designed belt sprayer was operated as described (Newhouse et al. 1992) for all herbicide applications. Five plants from each treatment were randomly chosen and individually measured for morphological traits. Means and standard deviations were calculated over three replications. Plant heights were measured from the base of the plant to the tip of the flag leaf 93 days after herbicide applications (DAH) and number of tillers per plant were counted 102-103 DAH. Data on number of panicles per plant and yield were collected after plants were harvested.
(§1) A total of 9 herbicides, 5 imidazolinones, two rice herbicides and ACCENT® (nicosulfuron) and CLASSIC® (clorimuron-ethyl) were applied in this study. Materials and methods were basically the same as described above, except that instead of 6″ pots, flats with 18 (3″×3″ per cell) cells were used, and 10-12 seeds were planted to one 3″×3″ cell. Ten plants were maintained in one cell in the post-emergence application. Each herbicide was sprayed at 4 different rates, 1, 2, 4, and 6×, as either pre or post-emergence applications with three replications per treatment. The name and amount of herbicide applied in this experiment and information relevant to their commercial applications are listed in Table 3. For simplicity and convenience, the lowest concentration used is referred as 1× rate, 2, 4 and 6× rates can be calculated as multiples of 1×.
(§2) To monitor plant response to various herbicides, data on fresh weight was collected. For pre-emergence applications, all plants from one cell were harvested 32 days after spraying (36-day old plants) and weighed. Twenty-nine days after herbicide application, 5 plants (44-day old plants) from each cell in the post-emergence application, were cut and weighed individually. Mean fresh weight for each treatment was calculated over three replications. The remaining 5 plants were grown in the greenhouse to maturity at which time, panicles of 3 plants were collected, and number of filled seeds and number of total kernels were counted to determine percentage of seed set.

[2] = tested on: untransformed Nt rice plants; assay: Response of rice plants to various herbicides, seed set in greenhouse; conditions: post-emergence, 1× g ai/ha: PURSUIT 62.5, CADRE 32, ARSENAL 24, RAPTOR 32, SCEPTER 125, ACCENT 35, CLASSIC 5, AC322,140 20, LONDAX 68
Description: as §1, §2

transgenic rice Line 29 = assay: as above; conditions: post-emergence, 1× g ai/ha: PURSUIT 62.5, CADRE 32, ARSENAL 24, RAPTOR 32, SCEPTER 125, ACCENT 35, CLASSIC 5, AC322,140 20, LONDAX 68
Description: as §1, §2

transgenic rice Line 26 = assay: as above; conditions: post-emergence, 1× g ai/ha: PURSUIT 62.5, CADRE 32, ARSENAL 24, RAPTOR 32, SCEPTER 125, ACCENT 35, CLASSIC 5, AC322,140 20, LONDAX 68
Description: as §1, §2

| SMILES | % seed-set ([2]; 1× rate) | No. filled seeds/3 panicles ([2]; 1× rate) | Total No. of kernels/3 panicles ([2]; 1× rate) | % seed-set ([2]; 2× rate) | No. filled seeds/3 panicles ([2]; 2× rate) | Total No. of kernels/3 panicles ([2]; 2× rate) | % seed-set ([2]; 4× rate) | No. filled seeds/3 panicles ([2]; 4× rate) | Total No. of kernels/3 panicles ([2]; 4× rate) | % seed-set ([2]; 6× rate) | No. filled seeds/3 panicles ([2]; 6× rate) | Total No. of kernels/3 panicles ([2]; 6× rate) | % seed-set (transgenic rice Line 29; 1× rate) | No. filled seeds/3 panicles (transgenic rice Line 29; 1× rate) | Total No. of kernels/3 panicles (transgenic rice Line 29; 1× rate) | % seed-set (transgenic rice Line 29; 2× rate) | No. filled seeds/3 panicles (transgenic rice Line 29; 2× rate) | Total No. of kernels/3 panicles (transgenic rice Line 29; 2× rate) | % seed-set (transgenic rice Line 29; 4× rate) | No. filled seeds/3 panicles (transgenic rice Line 29; 4× rate) | other results |
| --- | --- | --- | --- | --- | --- | --- | --- | --- | --- | --- | --- | --- | --- | --- | --- | --- | --- | --- | --- | --- | --- |
| COc1cc(OC)nc(NC(=O)NS(=O)(=O)Nc2ccccc2C(=O)C2CC2)n1 [AC 322,140, cyclosulfamuron] | 93% | 175 | 187 | 93% | 158 | 171 | 95% | 83 | 86 | 98% | 118 | 121 | 91% | 150 | 166 | 92% | 172 | 187 | 80% | 129 | effect on growth of all plants treated ([1]; transgenic and control plants): minimal effect; Total No. of kernels/3 panicles (transgenic rice Line 29; 4× rate): 160; % seed-set (transgenic rice Line 29; 6× rate): 87%; No. filled seeds/3 panicles (transgenic rice Line 29; 6× rate): 134; Total No. of kernels/3 panicles (transgenic rice Line 29; 6× rate): 154; % seed-set (transgenic rice Line 26; 1× rate): 90%; No. filled seeds/3 panicles (transgenic rice Line 26; 1× rate): 144; Total No. of kernels/3 panicles (transgenic rice Line 26; 1× rate): 160; % seed-set (transgenic rice Line 26; 2× rate): 94%; No. filled seeds/3 panicles (transgenic rice Line 26; 2× rate): 158; Total No. of kernels/3 panicles (transgenic rice Line 26; 2× rate): 168; % seed-set (transgenic rice Line 26; 4× rate): 91%; No. filled seeds/3 panicles (transgenic rice Line 26; 4× rate): 166; Total No. of kernels/3 panicles (transgenic rice Line 26; 4× rate): 182; % seed-set (transgenic rice Line 26; 6× rate): 85%; No. filled seeds/3 panicles (transgenic rice Line 26; 6× rate): 134; Total No. of kernels/3 panicles (transgenic rice Line 26; 6× rate): 158 |
| COc1cc(OC)nc(NC(=O)NS(=O)(=O)c2ncccc2C(=O)N(C)C)n1 [ACCENT ®, nicosulfuron] | 3% | 6 | 24 | 0% | 0 | 0 | 0% | 0 | 0 | 0% | 0 | 0 | 82% | 94 | 114 | 10% | 24 | 48 | 0% | 0 | effect on plant growth at 1× rates ([1]; post-emergence): greatly affected plant growth; Total No. of kernels/3 panicles (transgenic rice Line 29; 4× rate): 0; % seed-set (transgenic rice Line 29; 6× rate): 0%; No. filled seeds/3 panicles (transgenic rice Line 29; 6× rate): 0; Total No. of kernels/3 panicles (transgenic rice Line 29; 6× rate): 0; % seed-set (transgenic rice Line 26; 1× rate): 34%; No. filled seeds/3 panicles (transgenic rice Line 26; 1× rate): 82; Total No. of kernels/3 panicles (transgenic rice Line 26; 1× rate): 145; % seed-set (transgenic rice Line 26; 2× rate): 0%; No. filled seeds/3 panicles (transgenic rice Line 26; 2× rate): 0; Total No. of kernels/3 panicles (transgenic rice Line 26; 2× rate): 0; % seed-set (transgenic rice Line 26; 4× rate): 0%; No. filled seeds/3 panicles (transgenic rice Line 26; 4× rate): 0; Total No. of kernels/3 panicles (transgenic rice Line 26; 4× rate): 0; % seed-set (transgenic rice Line 26; 6× rate): 0%; No. filled seeds/3 panicles (transgenic rice Line 26; 6× rate): 0; Total No. of kernels/3 panicles (transgenic rice Line 26; 6× rate): 0 |

— patent US6653529B2, “Use of the maize X112 mutant ahas 2 gene and imidazolinone herbicides for selection of transgenic monocots, maize, rice and wheat plants resistant to the imidazolinone herbicides” (BASF Aktiengesellschaft, priority 2000, dated 2003)
